Laboratory results from US7368424B2, “Acylated nonadepsipeptides” (AiCuris GmbH & Co. KG, priority 2003, dated 2008).
Converted amounts (≈) assume the structure as drawn. *1 amine or outer side, *2 acyl side, *3 side chain or, on linkers, in order; H or OH if unused. Where a SMILES comes first, the peptide text is derived from it. Bridges are numbered along the chain shown (N, C = ends). [ ]: non-standard residue; d: D form. The star is where a group is joined. Phe(3R-OH) = O=C([C@@H](N[*:1])[C@H](O[*:3])c1ccccc1)[*:2]; Asn(3S-OH) = NC(=O)[C@@H](O)[C@H](N)C(=O)O; Leu(3R-OH) = CC(C)[C@@H](O)[C@H](N)C(=O)O; dAla(TMS) = C[Si](C)(C)C[C@@H](N)C(=O)O; d(tBuAla) = CC(C)(C)C[C@@H](N)C(=O)O; tBuAla = CC(C)(C)C[C@H](N)C(=O)O; 3Pal = N[C@@H](Cc1cccnc1)C(=O)O; aThr = C[C@H](O)[C@H](N)C(=O)O; dOrn = NCCC[C@@H](N)C(=O)O; Ac6c = NC1(C(=O)O)CCCCC1; Cbz = O=C(OCc1ccccc1)*

How the values were obtained:
E. faecalis ICB 27159 = type: cell-based, Enterococcus faecalis; details: ICB 27159
Experimental: (§1) Determination of the Minimum Inhibitory Concentration (MIC):
(§2) The MIC is determined in the liquid dilution test in accordance with the NCCLS guidelines. Overnight cultures of Staphylococcus aureus 133, Enterococcus faecalis 27159, E. faecium 4147 and Streptococcus pneumoniae G9a are incubated with the desired test substances in a 1:2 dilution series. The MIC determination is carried out with a cell count of 10^5 microbes per ml in Isosensitest medium (Difco, Irvine/USA), with the exception of S. pneumoniae which is tested in BHI broth (Difco, Irvine/USA) with 10% bovine serum with a cell count of 10^6 microbes per ml. The cultures are incubated at 37° C. for 18-24 hours, S. pneumoniae in the presence of 10% CO2.
(§3) The MIC is defined as the lowest concentration of each substance at which visible bacterial growth no longer occurs. The MIC values are reported in μg/ml.

[1] = tested on: Staphylococcus aureus 133; type: cell-based; details: 133
Experimental: as §1, §2, §3

[2] = tested on: Streptococcus pneumoniae G9a; type: cell-based; details: G9a
Experimental: as §1, §2, §3

E. faecium L4001 = type: cell-based, Enterococcus faecium; details: L4001

Compound | MIC E. faecalis ICB 27159 (E. faecalis ICB 27159) [µg/mL] | MIC S. aureus 133 [1] [µg/mL] | MIC S. pneumoniae [2] [µg/mL] | MIC E. faecium L4001 (E. faecium L4001) [µg/mL]
CC[C@H](C)[C@@H]1NC(=O)[C@@H](CCCNC(=N)N)NC(=O)[C@H](CC(C)C)NC(=O)[C@H]([C@H](O)C(C)C)NC(=O)[C@@H](NC(=O)[C@H](CC(C)C)NC(=O)C2(N)CCCCC2)[C@@H](c2ccccc2)OC(=O)[C@H](CO)NC(=O)[C@H]([C@H](O)C(N)=O)NC(=O)CNC(=O)[C@H]([C@H](C)O)NC1=O [Example 57, N-(1-Aminocyclohexyl)carbonyl-de(1-D-leucyl)lysobactin bistrifluoroacetate] (H-[Ac6c]L[Phe(3R-OH)][Leu(3R-OH)]L[dR]I[aThr]G[Asn(3S-OH)]S; ester 3-C) | 1 (≈ 0.776 µM) | 0.5 (≈ 0.388 µM) | 0.25 (≈ 0.194 µM) | 1 (≈ 0.776 µM)
CC[C@H](C)[C@@H]1NC(=O)[C@@H](CCCNC(=N)N)NC(=O)[C@H](CC(C)C)NC(=O)[C@H]([C@H](O)C(C)C)NC(=O)[C@@H](NC(=O)[C@H](CC(C)C)NC(=O)[C@H](N)C[Si](C)(C)C)[C@@H](c2ccccc2)OC(=O)[C@H](CO)NC(=O)[C@H]([C@H](O)C(N)=O)NC(=O)CNC(=O)[C@H]([C@H](C)O)NC1=O [Example 59, 3-(Trimethylsilyl-D-alanyl-de(1-D-leucyl)lysobactin bistrifluoroacetate] (H-[dAla(TMS)]L[Phe(3R-OH)][Leu(3R-OH)]L[dR]I[aThr]G[Asn(3S-OH)]S; ester 3-C) | 0.25 (≈ 0.191 µM) | 0.125 (≈ 0.0957 µM) | <0.063 | 0.25 (≈ 0.191 µM)
CC[C@H](C)[C@@H]1NC(=O)[C@@H](CCCNC(=N)N)NC(=O)[C@H](CC(C)C)NC(=O)[C@H]([C@H](O)C(C)C)NC(=O)[C@@H](NC(=O)[C@H](CC(C)C)NC(=O)[C@H](N)CCCNC(=O)OCc2ccccc2)[C@@H](c2ccccc2)OC(=O)[C@H](CO)NC(=O)[C@H]([C@H](O)C(N)=O)NC(=O)CNC(=O)[C@H]([C@H](C)O)NC1=O [Example 62, N^6-[(Benzyloxy)carbonyl]-D-ornithyl-de(1-D-leucyl)lysobactin bistrifluoroacetate] (H-[dOrn](Cbz)L[Phe(3R-OH)][Leu(3R-OH)]L[dR]I[aThr]G[Asn(3S-OH)]S; ester 3-C) | 1 (≈ 0.708 µM) | 0.25 (≈ 0.177 µM) | 0.5 (≈ 0.354 µM) | 0.5 (≈ 0.354 µM)
CC[C@H](C)[C@@H]1NC(=O)[C@@H](CCCNC(=N)N)NC(=O)[C@H](CC(C)C)NC(=O)[C@H]([C@H](O)C(C)C)NC(=O)[C@@H](NC(=O)[C@H](CC(C)(C)C)NC(=O)[C@H](N)CC(C)(C)C)[C@@H](c2ccccc2)OC(=O)[C@H](CO)NC(=O)[C@H]([C@H](O)C(N)=O)NC(=O)CNC(=O)[C@H]([C@H](C)O)NC1=O.O=C(O)C(F)(F)F.O=C(O)C(F)(F)F [Example 68] (H-[d(tBuAla)][tBuAla][Phe(3R-OH)][Leu(3R-OH)]L[dR]I[aThr]G[Asn(3S-OH)]S; ester 3-C) | 0.5 | 0.125 | 0.031 | 0.5
CC[C@H](C)[C@@H]1NC(=O)[C@@H](CCCNC(=N)N)NC(=O)[C@H](CC(C)C)NC(=O)[C@H]([C@H](O)C(C)C)NC(=O)[C@@H](NC(=O)[C@H](Cc2cccnc2)NC(=O)[C@H](N)CC(C)(C)C)[C@@H](c2ccccc2)OC(=O)[C@H](CO)NC(=O)[C@H]([C@H](O)C(N)=O)NC(=O)CNC(=O)[C@H]([C@H](C)O)NC1=O [Example 69, 3-tert-Butyl-D-alanyl-3-(3-pyridyl)-L-alanyl-de(1-D-leucyl-2-L-leucyl)lysobactin tristrifluoroacetate] (H-[d(tBuAla)][3Pal][Phe(3R-OH)][Leu(3R-OH)]L[dR]I[aThr]G[Asn(3S-OH)]S; ester 3-C) | 1 (≈ 0.754 µM) | 0.5 (≈ 0.377 µM) | 0.5 (≈ 0.377 µM) | 1 (≈ 0.754 µM)
